Experimental data from patent publication EP4603105A1, “PHARMACEUTICAL COMPOSITION CONTAINING CYCLIC COMPOUND HAVING SELECTIVE KRAS INHIBITORY EFFECT AGAINST HRAS AND NRAS” (CHUGAI SEIYAKU KABUSHIKI KAISHA, priority 2022, dated 2024).
Like-named read-outs stand apart in the source and are kept apart here. Where a SMILES comes first, the peptide text is derived from it. Bridges are numbered along the chain shown (N, C = ends). [ ]: non-standard residue; d: D form. The star is where a group is joined. hPhe(3-Cl-4-CF3) = N[C@@H](CCc1ccc(C(F)(F)F)c(Cl)c1)C(=O)O; NPrPhe(4-CF3) = CCCN[C@@H](Cc1ccc(C(F)(F)F)cc1)C(=O)O; NMeGly(cPent) = CN[C@H](C(=O)O)C1CCCC1; Aze(3S-Me) = C[C@H]1CN[C@@H]1C(=O)O; NMeD = CN[C@@H](CC(=O)O)C(=O)O; NMeL = CN[C@@H](CC(C)C)C(=O)O; Morpholide = C1CN(*)CCO1; NMeA = CN[C@@H](C)C(=O)O; Pyrrolidide = C1CCN(*)C1; Ac5c = NC1(C(=O)O)CCCC1; Aze = O=C(O)[C@@H]1CCN1; NPrGly = CCCNCC(=O)O; Sar = CNCC(=O)O

How the values were obtained:
[1] = target: GDP-bound NRAS wild-type protein (Homo sapiens, UniProt P01111); assay: Binding to NRAS by surface plasmon resonance (SPR), KD and KD ratio to KRAS
Outline: (§1)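 Single-cycle kinetics on GDP-loaded biotin-Avi RAS captured to ~100–300 RU; 75 s ascending injections, 100 µL/min, 30°C. HBS pH 7.4 + 10 mM MgCl2/10 µM GDP/4% DMSO. 1:1 fit, KD.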

HRAS wild-type protein = HRAS wild-type protein (Homo sapiens, UniProt P01112); assay: Binding to HRAS by surface plasmon resonance (SPR), KD and KD ratio to KRAS
Outline: as §1

[2] = tested on: human lung cancer strain NCI-H441; type: cell-based
Outline: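 Proliferation was scored by […] measured after the reagent was added to cultures kept at 37°C in 5% carbon dioxide.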

[3] = ratio of KD with respect to GDP-bound NRAS wild-type protein to KD with respect to KRAS
[4] = ratio of KD with respect to HRAS wild-type protein to KD with respect to KRAS
[5] = ratio of KD for GDP-bound NRAS wild-type protein to KD for KRAS
[6] = ratio of KD for HRAS wild-type protein to KD for KRAS
[7] = ratio of KD value for GDP-bound NRAS wild-type protein to KD value for KRAS (SPR)
[8] = ratio of KD value for HRAS wild-type protein to KD value for KRAS (SPR)

Sequence of GDP-bound NRAS wild-type protein (P01111 whole entry): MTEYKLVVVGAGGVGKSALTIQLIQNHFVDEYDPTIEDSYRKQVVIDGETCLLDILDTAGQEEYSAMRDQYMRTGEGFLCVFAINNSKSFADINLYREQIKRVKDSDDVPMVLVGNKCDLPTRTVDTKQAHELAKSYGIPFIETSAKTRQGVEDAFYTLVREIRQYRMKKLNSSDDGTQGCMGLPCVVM
Sequence of HRAS wild-type protein (P01112 whole entry): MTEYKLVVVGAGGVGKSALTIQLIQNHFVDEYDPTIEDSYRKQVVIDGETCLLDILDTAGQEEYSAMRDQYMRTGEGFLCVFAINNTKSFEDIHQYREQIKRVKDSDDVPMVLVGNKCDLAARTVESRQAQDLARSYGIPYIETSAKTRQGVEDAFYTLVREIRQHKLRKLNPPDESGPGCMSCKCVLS

SMILES	IC50 [2] [nM]	NRAS /KRAS [1, 5]	HRAS /KRAS (HRAS wild-type protein; [6])	also measured
CCO[C@@H]1C[C@H]2C(=O)NC3(CCC3)C(=O)N(C)[C@@H](C3CCCC3)C(=O)N(C)[C@H](C(=O)N(C)CCOC)CC(=O)N(C)[C@@H](CC(C)C)C(=O)N[C@@H]([C@@H](C)CC)C(=O)N(C)CC(=O)N(C)[C@H]3C/C=C\CCN(C3=O)[C@@H](Cc3ccc(C(F)(F)F)cc3)C(=O)N(C)CC(=O)N[C@@H](CCc3ccc4sccc4c3)C(=O)N2C1 [PP1325]	42.7	–	–	NRAS /KRAS [1, 3]: A (a compound having 10 or more and less than 20 is denoted as A); HRAS /KRAS (HRAS wild-type protein; [4]): A (a compound having 10 or more and less than 20 is denoted as A)
CCC[C@H]1C(=O)N[C@@H]([C@@H](C)CC)C(=O)N(C)CC(=O)N(C)[C@H]2C/C=C\CCN(C2=O)[C@@H](Cc2ccc(C(F)(F)F)cc2)C(=O)N(C)CC(=O)N[C@@H](CCc2ccc(C(F)(F)F)c(Cl)c2)C(=O)N2C[C@H](OCC)C[C@H]2C(=O)NC2(CC(C)(C)C2)C(=O)N(C)[C@@H]([C@@H](C)CC)C(=O)N(C)[C@H](C(=O)N(C)C)CC(=O)N1C [PP2973]	7.9	A (a compound having 10 or more and less than 20 is denoted as A)	A (a compound having 10 or more and less than 20 is denoted as A)	–
CCC[C@H]1C(=O)N[C@@H]([C@@H](C)CC)C(=O)N(C2CC2)CC(=O)N(C)[C@H]2C/C=C\CCN(C2=O)[C@@H](Cc2ccc(C)cc2)C(=O)N(C)CC(=O)N[C@@H](CCc2ccc(C3CC3)c(C)c2)C(=O)N2C[C@H](OCC)C[C@H]2C(=O)NC2(CC(C)(C)C2)C(=O)N(C)[C@@H](C2CCCC2)C(=O)N(C)[C@H](C(=O)N(C)C)CC(=O)N1C [PP2886]	–	A (a compound having 10 or more and less than 20 is denoted as A)	A (a compound having 10 or more and less than 20 is denoted as A)	IC50 ([2]; NCI-H441 cells, 4 days, CellTiter-Glo, read-out: NCl-H441 IC50): 112 nM
CCCN1CC(=O)N2CC[C@H]2C(=O)N(CCC)[C@@H](Cc2ccc(C(F)(F)F)cc2)C(=O)N(C)CC(=O)N[C@@H](CCc2ccc(C(F)(F)F)c(Cl)c2)C(=O)N2CCC[C@H]2C(=O)NC2(CCCC2)C(=O)N(C)[C@@H](C2CCCC2)C(=O)N(C)[C@H](C(=O)N2CCOCC2)CC(=O)N(C)[C@@H](CC(C)C)C(=O)N[C@@H]([C@@H](C)CC)C1=O [PP0274] ([NMeL]I[NPrGly][Aze][NPrPhe(4-CF3)][Sar][hPhe(3-Cl-4-CF3)]P[Ac5c][NMeGly(cPent)][NMeD]-Morpholide; lactam N-11)	9.1	C (A compound having a KD ratio of 0.1 or more and less than 3 is denoted as C)	B (a compound having 3 or more and less than 10 is denoted as B)	–
CCO[C@@H]1C[C@H]2C(=O)NC3(CC(C)(C)C3)C(=O)N(C)[C@@H](C3CCCC3)C(=O)N(C)[C@H](C(=O)N(C)CC)CC(=O)N(C)[C@H]3CCC/C=C/c4ccc(cc4)C[C@@H](C(=O)N(C)CC(=O)N[C@@H](CCc4cc(F)c(C(F)(F)F)c(F)c4)C(=O)N2C1)N1CC/C=C\C[C@@H](C1=O)N(C)C(=O)CN(C)C(=O)[C@H]([C@@H](C)CC)NC3=O [PP1835]	4.9	–	–	NRAS /KRAS [1, 7]: A (a compound having 10 or more and less than 20 is denoted as A); HRAS /KRAS (HRAS wild-type protein; [8]): B (a compound having 3 or more and less than 10 is denoted as B)
CCCN1C(=O)[C@@H]2CCN2C(=O)[C@H](C)N(C)C(=O)[C@H]([C@@H](C)CC)NC(=O)[C@H](CC(C)C)N(C)C(=O)C[C@@H](C(=O)N2CCCC2)N(C)C(=O)[C@H](C2CCCC2)N(C)C(=O)C2(CCCC2)NC(=O)[C@@H]2CCCN2C(=O)[C@H](CCc2ccc(C(F)(F)F)c(Cl)c2)NC(=O)CN(C)C(=O)[C@@H]1Cc1ccc(C(F)(F)F)cc1 [PP0179] ([NMeL]I[NMeA][Aze][NPrPhe(4-CF3)][Sar][hPhe(3-Cl-4-CF3)]P[Ac5c][NMeGly(cPent)][NMeD]-Pyrrolidide; lactam N-11)	4.5	C (A compound having a KD ratio of 0.1 or more and less than 3 is denoted as C)	B (a compound having 3 or more and less than 10 is denoted as B)	–
CCCN1C(=O)[C@@H]2[C@@H](C)CN2C(=O)[C@H](C)N(C)C(=O)[C@H]([C@@H](C)CC)NC(=O)[C@H](CC(C)C)N(C)C(=O)C[C@@H](C(=O)N2CCOCC2)N(C)C(=O)[C@H](C2CCCC2)N(C)C(=O)C2(CCCC2)NC(=O)[C@@H]2CCCN2C(=O)[C@H](CCc2ccc(C(F)(F)F)c(Cl)c2)NC(=O)CN(C)C(=O)[C@@H]1Cc1ccc(C(F)(F)F)cc1 [PP0141] ([NMeL]I[NMeA][Aze(3S-Me)][NPrPhe(4-CF3)][Sar][hPhe(3-Cl-4-CF3)]P[Ac5c][NMeGly(cPent)][NMeD]-Morpholide; lactam N-11)	3.5	C (A compound having a KD ratio of 0.1 or more and less than 3 is denoted as C)	B (a compound having 3 or more and less than 10 is denoted as B)	–
CCO[C@@H]1C[C@H]2C(=O)NC3(CCC3)C(=O)N(C)[C@@H](C3CCCC3)C(=O)N(C)[C@H](C(=O)N3CCOCC3)CC(=O)N(C)[C@@H](CC)C(=O)N[C@@H]([C@@H](C)CC)C(=O)N3CC[C@H]3C(=O)N(C)[C@H]3C[C@@H](C)CCN(C3=O)[C@@H](Cc3ccc(C(F)(F)F)cc3)C(=O)N(C)CC(=O)N[C@@H](CCc3cc(F)c(C(F)(F)F)c(F)c3)C(=O)N2C1 [PP1028]	17.3	B (a compound having 3 or more and less than 10 is denoted as B)	B (a compound having 3 or more and less than 10 is denoted as B)	–
CCO[C@@H]1C[C@H]2C(=O)NC3(CCCC3)C(=O)N(C)[C@@H](C3CCCC3)C(=O)N(C)[C@H](C(=O)N(C)C)CC(=O)N(C)[C@@H](CC(C)C)C(=O)N[C@@H]([C@@H](C)CC)C(=O)N(C)CC(=O)N(C)[C@H]3C/C=C\CCN(C3=O)[C@@H](Cc3ccc(C)cc3)C(=O)N(C)CC(=O)N[C@@H](CCc3ccc(C(F)(F)F)c(Cl)c3)C(=O)N2C1 [PP2195]	7.8	–	–	NRAS /KRAS ([1]; ratio of the KD value with respect to GDP-bound NRAS wild-type protein to the KD value with respect to KRAS): A (a compound having 10 or more and less than 20 is denoted as A); HRAS /KRAS (HRAS wild-type protein; ratio of the KD value with respect to HRAS wild-type protein to the KD value with respect to KRAS): A (a compound having 10 or more and less than 20 is denoted as A)
CCO[C@@H]1C[C@H]2C(=O)NC3(CC(C)(C)C3)C(=O)N(C)[C@@H](C3CCCC3)C(=O)N(C)[C@H](C(=O)N(C)CC)CC(=O)N(C)[C@@H](CC(C)C)C(=O)N[C@@H]([C@@H](C)CC)C(=O)N(C)CC(=O)N(C)[C@H]3C/C=C\CCN(C3=O)[C@@H](Cc3ccc(C(F)F)cc3)C(=O)N(C)CC(=O)N[C@@H](CCc3ccc(C(F)(F)F)c(Cl)c3)C(=O)N2C1 [PP2829]	7.9	A (a compound having 10 or more and less than 20 is denoted as A)	A (a compound having 10 or more and less than 20 is denoted as A)	–
CCO[C@@H]1C[C@H]2C(=O)NC3(CCC3)C(=O)N(C)[C@@H](C3CCCC3)C(=O)N(C)[C@H](C(=O)N(C)CCOC)CC(=O)N(C)[C@@H](CC3CC3)C(=O)N[C@@H]([C@@H](C)CC)C(=O)N(C)CC(=O)N(C)[C@H]3C/C=C\CCN(C3=O)[C@@H](Cc3ccc(C(F)(F)F)cc3)C(=O)N(C)CC(=O)N[C@@H](CCc3cc(F)c(C(F)(F)F)c(F)c3)C(=O)N2C1 [PP1318]	11.5	–	–	NRAS /KRAS [1, 3]: A (a compound having 10 or more and less than 20 is denoted as A); HRAS /KRAS (HRAS wild-type protein; [4]): A (a compound having 10 or more and less than 20 is denoted as A)
CCC[C@H]1C(=O)N[C@@H]([C@@H](C)CC)C(=O)N(C)CC(=O)N(C)[C@H]2C/C=C\CCN(C2=O)[C@@H](Cc2ccc(C)cc2)C(=O)N(C)CC(=O)N[C@@H](CCc2ccc(CC)c(Cl)c2)C(=O)N2C[C@H](OCC)C[C@H]2C(=O)NC2(CC(C)(C)C2)C(=O)N(C)[C@@H](C2CCCC2)C(=O)N(C)[C@H](C(=O)N(C)C)CC(=O)N1C [PP2778]	22.3	A (a compound having 10 or more and less than 20 is denoted as A)	A (a compound having 10 or more and less than 20 is denoted as A)	–
CCO[C@@H]1C[C@H]2C(=O)NC3(CCC3)C(=O)N(C)[C@@H](C3CCCC3)C(=O)N(C)[C@H](C(=O)N(C)C)CC(=O)N(C)[C@@H](CSC)C(=O)N[C@@H]([C@@H](C)CC)C(=O)N(C)CC(=O)N(C)[C@H]3C/C=C\CCN(C3=O)[C@@H](Cc3ccc(C(F)(F)F)cc3)C(=O)N(C)CC(=O)N[C@@H](CCc3cc(F)c(C(F)(F)F)c(F)c3)C(=O)N2C1 [PP1119]	25.5	A (a compound having 10 or more and less than 20 is denoted as A)	A (a compound having 10 or more and less than 20 is denoted as A)	–
CCCOC[C@H]1C(=O)N[C@@H]([C@@H](C)CC)C(=O)N(C)CC(=O)N(C)[C@H]2C/C=C\CCN(C2=O)[C@@H](Cc2ccc(C(F)(F)F)cc2)C(=O)N(C)CC(=O)N[C@@H](CCc2cc(F)c(Cl)c(F)c2)C(=O)N2C[C@H](OCC)C[C@H]2C(=O)NC2(CC(C)(C)C2)C(=O)N(C)[C@@H](C2CCCC2)C(=O)N(C)[C@H](C(=O)N(C)C)CC(=O)N1C [PP1764]	11.1	–	–	NRAS /KRAS [1, 7]: AA (a compound having 20 or more is denoted as AA); HRAS /KRAS (HRAS wild-type protein; [8]): A (a compound having 10 or more and less than 20 is denoted as A)
